Results reported in PubChem BioAssay (NCI).
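Each compound was tested at five concentrations against cells in 96-well plates for 48 hours. TGI denotes the concentration required for complete inhibition of growth.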

Tests used:
Experiment in all cases: inhibition of tumour cell growth, NCI panel, 48 h
[1] = system: 786-0 renal
[2] = system: A498 renal
[3] = system: A549 NSCLC
[4] = system: ACHN renal
[5] = system: BT-549 breast
[6] = system: CAKI-1 renal
[7] = system: CCRF-CEM leukemia
[8] = system: COLO 205 colon
[9] = system: DU-145 prostate
[10] = system: EKVX NSCLC
[11] = system: HCT-116 colon
[12] = system: HCT-15 colon
[13] = system: HL-60(TB) leukemia
[14] = system: HOP-62 NSCLC
[15] = system: HOP-92 NSCLC
[16] = system: HS 578T breast
[17] = system: HT29 colon
[18] = system: IGROV1 ovarian
[19] = system: KM12 colon
[20] = system: LOX IMVI melanoma
[21] = system: M14 melanoma
[22] = system: MCF7 breast
[23] = system: MDA-MB-231 breast
[24] = system: MDA-MB-435
[25] = system: MDA-N
[26] = system: MOLT-4 leukemia
[27] = system: NCI-H226 lung
[28] = system: NCI-H23 lung
[29] = system: NCI-H460 lung
[30] = system: NCI-H522 lung
[31] = system: NCI/ADR-RES ovarian
[32] = system: OVCAR-3 ovarian
[33] = system: OVCAR-5 ovarian
[34] = system: OVCAR-8 ovarian
[35] = system: PC-3 prostate
[36] = system: SF-268 CNS
[37] = system: SF-295 CNS
[38] = system: SF-539 CNS
[39] = system: SK-MEL-2 melanoma
[40] = system: SK-MEL-28 melanoma
[41] = system: SK-MEL-5 melanoma
[42] = system: SK-OV-3 ovarian
[43] = system: SN12C renal
[44] = system: SNB-19 CNS
[45] = system: SNB-75 CNS
[46] = system: SW-620 colon
[47] = system: T-47D breast
[48] = system: TK-10 renal
[49] = system: U251 CNS
[50] = system: UACC-257 melanoma
[51] = system: UACC-62 melanoma
[52] = system: UO-31 renal
[53] = system: HCC-2998 colon
[54] = system: K-562 leukemia
[55] = system: MALME-3M melanoma
[56] = system: OVCAR-4 ovarian
[57] = system: RPMI-8226 leukemia
[58] = system: RXF 393 renal
[59] = system: SR leukemia

SMILES: CCOC(=O)c1cc(=O)c2ccnc3c2n1CCS3
- TGI [1]: > 100 µM
- TGI [2]: > 100 µM
- TGI [3]: > 100 µM
- TGI [4]: > 100 µM
- TGI [5]: > 100 µM
- TGI [6]: > 100 µM
- TGI [7]: > 100 µM
- TGI [8]: > 100 µM
- TGI [9]: > 100 µM
- TGI [10]: > 100 µM
- TGI [11]: > 100 µM
- TGI [12]: > 100 µM
- TGI [13]: > 100 µM
- TGI [14]: > 100 µM
- TGI [15]: > 100 µM
- TGI [16]: > 100 µM
- TGI [17]: > 100 µM
- TGI [18]: > 100 µM
- TGI [19]: > 100 µM
- TGI [20]: > 100 µM
- TGI [21]: > 100 µM
- TGI [22]: > 100 µM
- TGI [23]: > 100 µM
- TGI [24]: > 100 µM
- TGI [25]: > 100 µM
- TGI [26]: > 100 µM
- TGI [27]: > 100 µM
- TGI [28]: > 100 µM
- TGI [29]: > 100 µM
- TGI [30]: 74.4 µM
- TGI [31]: > 100 µM
- TGI [32]: > 100 µM
- TGI [33]: > 100 µM
- TGI [34]: > 100 µM
- TGI [35]: > 100 µM
- TGI [36]: > 100 µM
- TGI [37]: > 100 µM
- TGI [38]: > 100 µM
- TGI [39]: > 100 µM
- TGI [40]: > 100 µM
- TGI [41]: > 100 µM
- TGI [42]: > 100 µM
- TGI [43]: > 100 µM
- TGI [44]: > 100 µM
- TGI [45]: > 100 µM
- TGI [46]: > 100 µM
- TGI [47]: > 100 µM
- TGI [48]: > 100 µM
- TGI [49]: > 100 µM
- TGI [50]: > 100 µM
- TGI [51]: > 100 µM
- TGI [52]: > 100 µM

SMILES: CC(=O)N1C(OC(C)C)CC(C)N1c1ccccc1 (centres undefined)
- TGI [1]: > 10 µM
- TGI [3]: > 10 µM
- TGI [4]: > 10 µM
- TGI [5]: > 10 µM
- TGI [6]: > 10 µM
- TGI [7]: > 10 µM
- TGI [8]: > 10 µM
- TGI [9]: > 10 µM
- TGI [10]: > 10 µM
- TGI [53]: > 10 µM
- TGI [11]: > 10 µM
- TGI [12]: > 10 µM
- TGI [13]: > 10 µM
- TGI [14]: > 10 µM
- TGI [15]: > 10 µM
- TGI [16]: > 10 µM
- TGI [17]: > 10 µM
- TGI [18]: > 10 µM
- TGI [54]: > 10 µM
- TGI [20]: > 10 µM
- TGI [21]: > 10 µM
- TGI [55]: > 10 µM
- TGI [22]: > 10 µM
- TGI [23]: > 10 µM
- TGI [24]: > 10 µM
- TGI [25]: > 10 µM
- TGI [26]: > 10 µM
- TGI [27]: > 10 µM
- TGI [28]: > 10 µM
- TGI [29]: > 10 µM
- TGI [31]: > 10 µM
- TGI [32]: > 10 µM
- TGI [56]: > 10 µM
- TGI [33]: > 10 µM
- TGI [34]: > 10 µM
- TGI [35]: > 10 µM
- TGI [57]: > 10 µM
- TGI [58]: > 10 µM
- TGI [36]: > 10 µM
- TGI [37]: > 10 µM
- TGI [38]: > 10 µM
- TGI [39]: > 10 µM
- TGI [40]: > 10 µM
- TGI [41]: > 10 µM
- TGI [43]: > 10 µM
- TGI [44]: > 10 µM
- TGI [45]: > 10 µM
- TGI [59]: > 10 µM
- TGI [46]: > 10 µM
- TGI [47]: > 10 µM
- TGI [48]: > 10 µM
- TGI [50]: > 10 µM

SMILES: CCOC(=O)NC(Nc1ncccn1)(C(=O)OCC)C(F)(F)F (centres undefined)
- TGI [3]: > 100 µM
- TGI [4]: > 100 µM
- TGI [5]: > 100 µM
- TGI [6]: > 100 µM
- TGI [7]: > 100 µM
- TGI [8]: > 100 µM
- TGI [9]: > 100 µM
- TGI [10]: > 100 µM
- TGI [53]: > 100 µM
- TGI [11]: > 100 µM
- TGI [12]: > 100 µM
- TGI [13]: > 100 µM
- TGI [15]: > 100 µM
- TGI [16]: > 100 µM
- TGI [17]: > 100 µM
- TGI [18]: > 100 µM
- TGI [54]: > 100 µM
- TGI [19]: > 100 µM
- TGI [20]: > 100 µM
- TGI [21]: > 100 µM
- TGI [22]: > 100 µM
- TGI [23]: > 100 µM
- TGI [24]: > 100 µM
- TGI [25]: > 100 µM
- TGI [26]: > 100 µM
- TGI [28]: > 100 µM
- TGI [29]: > 100 µM
- TGI [30]: > 100 µM
- TGI [31]: > 100 µM
- TGI [32]: > 100 µM
- TGI [56]: > 100 µM
- TGI [33]: > 100 µM
- TGI [34]: > 100 µM
- TGI [35]: > 100 µM
- TGI [57]: > 100 µM
- TGI [58]: > 100 µM
- TGI [36]: > 100 µM
- TGI [37]: > 100 µM
- TGI [38]: > 100 µM
- TGI [39]: > 100 µM
- TGI [40]: > 100 µM
- TGI [41]: > 100 µM
- TGI [43]: > 100 µM
- TGI [44]: > 100 µM
- TGI [45]: > 100 µM
- TGI [59]: > 100 µM
- TGI [46]: > 100 µM
- TGI [47]: > 100 µM
- TGI [48]: > 100 µM
- TGI [49]: > 100 µM
- TGI [50]: > 100 µM
- TGI [51]: > 100 µM
- TGI [52]: > 100 µM

SMILES: CN(CCNC(=O)c1nn(-c2ccccc2)c2c1Cc1ccccc1-2)CCNC(=O)c1nn(-c2ccccc2)c2c1Cc1ccccc1-2
- TGI [1]: 3.08 µM
- TGI [2]: 3.36 µM
- TGI [3]: 4.93 µM
- TGI [4]: 3.44 µM
- TGI [5]: 18.7 µM
- TGI [6]: 7.28 µM
- TGI [7]: 4.68 µM
- TGI [8]: 3.32 µM
- TGI [9]: 6.75 µM
- TGI [10]: 9.65 µM
- TGI [53]: 3.13 µM
- TGI [11]: 3.13 µM
- TGI [12]: 3.67 µM
- TGI [13]: 2.91 µM
- TGI [14]: 3.6 µM
- TGI [15]: 3.01 µM
- TGI [16]: 3.77 µM
- TGI [17]: 3.73 µM
- TGI [18]: 3.31 µM
- TGI [54]: 6.59 µM
- TGI [19]: 3.69 µM
- TGI [20]: 3.32 µM
- TGI [21]: 3.27 µM
- TGI [55]: 3.34 µM
- TGI [22]: 3.19 µM
- TGI [23]: 3.39 µM
- TGI [24]: 3.17 µM
- TGI [25]: 3.16 µM
- TGI [26]: 11 µM
- TGI [28]: 3.7 µM
- TGI [29]: 3.15 µM
- TGI [30]: 3.15 µM
- TGI [31]: 6.36 µM
- TGI [32]: 3.52 µM
- TGI [56]: 4.48 µM
- TGI [33]: 6.8 µM
- TGI [34]: 3.17 µM
- TGI [35]: 4.81 µM
- TGI [57]: 14.1 µM
- TGI [58]: 3.07 µM
- TGI [36]: 4.74 µM
- TGI [37]: 3.34 µM
- TGI [38]: 4.11 µM
- TGI [39]: 3.38 µM
- TGI [40]: 3.24 µM
- TGI [41]: 3.38 µM
- TGI [42]: 4.31 µM
- TGI [43]: 3.61 µM
- TGI [44]: 4.43 µM
- TGI [45]: 3.5 µM
- TGI [46]: 3.09 µM
- TGI [47]: > 22.5 µM
- TGI [48]: 4.3 µM
- TGI [49]: 3.09 µM
- TGI [50]: 3.42 µM
- TGI [51]: 3.1 µM
- TGI [52]: 3.22 µM
